From patent EP3335764A1, “A STRAIN OF A[…] APPLICATIONS THEREOF” (Infinitec Activos S.L., priority 2016, dated 2018)

Test system: Prostaglandin E2 (PGE2)
Assay: Anti-inflammatory activity: PGE2 quantification by ELISA in cells stimulated by IL-1α
Assay type: cell-based
Conditions: IL-1α (5 pM), Cycloheximide 100 µg/ml
Experimental: When cells are stimulated by an inflammatory agent PGE2 is synthesized de novo and released into the extracellular space. Thus quantification of PGE2 is used to asses the anti-inflammatory activity products.
In the present example the anti-inflammatory activity of the extract of example 2 was determined by quantification of PGE2 in cells stimulated by IL-1α using a kit for an enzyme-linked immunosorbent assay (ELISA). The kit used was Prostaglandin E2 EIA kit Item n° 514010 from Cayman Chemical.
Prostaglandin E2 assay is based on competition between the PGE^2 to be determined and a fixed amount of added PGE2-acetylcholinesterase (AChE) conjugate (PGE2 tracer) for a limited amount of PGE2 monoclonal antibody. The amount of PGE2 tracer able to bind the PGE2 monoclonal antibody will be inversely proportional to the concentration of PGE2 in the well. Both the antibody-PGE2 complex and then antibody-PGE2 tracer complex bind to polyclonal goat anti-mouse IgG previously bound to the well. Then the plate is washed to remove any unbound reagent and Ellman's reagent is added to determine the amount of AChE bound to the well. […] The intensity of this color, determined by UV-Vis spectrophotometry, is proportional to the amount of PGE2 tracer bound […], which is inversely proportional to the amount of PGE2 present in the free well during incubation.

C[C@@H]1C[C@@H]([C@H](O)CC2CC(=O)NC(=O)C2)C(=O)[C@@H](C)C1 [Cycloheximide] was tested, and the “PGE2” value was 31.85 pg/mL and the inhibition at 100 µg/mL was 97.6%.
